Source: patent publication US20080132505A1 (Glaxo Group Limited, priority 2004, published 2008)

Target: human cannabinoid CB2 receptor (Homo sapiens, UniProt P34972)
Assay: Cannabinoid CB2 receptor agonist activity (yeast reporter assay, FDGlu fluorescence)
Format: cell-based
Settings: for EC50: EC50 value at the cloned human cannabinoid CB2 receptor; for Emax: read-out: efficacy value (Emax relative to HU210) at the cloned human cannabinoid CB2 receptor
In short: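 Agonist-driven growth was read as fluorescein fluorescence (ex 485, em 535 nm) from FDGlu cleavage after 24 h at 30 °C, using yeast strain MMY23 carrying human CB2 and chimeric Gpa1/Gαi3. Medium had 10 mM 3-aminotriazole, pH 7.0; four-parameter fits gave EC50, with Emax and EMR versus HU210.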

Sequence of human cannabinoid CB2 receptor (P34972 whole entry): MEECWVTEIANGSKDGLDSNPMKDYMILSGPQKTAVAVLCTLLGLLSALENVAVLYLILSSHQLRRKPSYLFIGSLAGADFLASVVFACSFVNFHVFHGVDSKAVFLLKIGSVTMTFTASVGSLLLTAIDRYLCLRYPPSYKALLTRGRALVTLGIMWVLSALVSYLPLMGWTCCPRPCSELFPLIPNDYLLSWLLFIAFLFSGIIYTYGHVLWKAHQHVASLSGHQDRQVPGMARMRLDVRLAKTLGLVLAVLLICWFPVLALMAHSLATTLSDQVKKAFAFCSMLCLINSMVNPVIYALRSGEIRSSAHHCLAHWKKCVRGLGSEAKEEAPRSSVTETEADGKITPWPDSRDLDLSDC

Compound | EC50 [nM] | Emax [%]
O=C(NCC1CCCC1)c1cnc(Nc2cc(F)ccc2Cl)nc1C(F)(F)F [Example 249, 2-(2-Chloro-5-fluoro-phenylamino)-4-trifluoromethyl-pyrimidine-5-carboxylic acid cyclopentylmethyl-amide] | 20 to 300 | > 50
O=C(NCC1CCOCC1)c1cnc(Nc2ccc(Cl)c(Cl)c2)nc1C(F)(F)F [Example 250, 2-(3,4-Dichlorophenylamino)-4-trifluoromethylpyrimidine-5-carboxylic acid (tetrahydro-pyran-4-ylmethyl)-amide] | 20 to 300 | > 50
O=C(NCC1CCCC1)c1cnc(Nc2ccccc2)nc1C(F)(F)F [Example 251, 2-(Phenylamino)-4-trifluoromethyl-pyrimidine-5-carboxylic acid cyclopentylmethyl-amide] | 20 to 300 | > 50
O=C(NCC1CCC1)c1cnc(Nc2cccc(C(F)(F)F)c2F)nc1C(F)(F)F [Example 252, 2-(2-Fluoro-3-trifluoromethyl-phenylamino)-4-trifluoromethyl-pyrimidine-5-carboxylic acid cyclobutylmethyl-amide] | 20 to 300 | > 50
Cc1cc(Cl)ccc1Nc1ncc(C(=O)NCC2CCC2)c(C(F)(F)F)n1 [Example 253, 2-(2-Methyl-4-chloro-phenylamino)-4-trifluoromethyl-pyrimidine-5-carboxylic acid cyclobutylmethyl-amide] | 20 to 300 | > 50
O=C(NCC1CCOCC1)c1cnc(Nc2ccc(Br)cc2C(F)(F)F)nc1C(F)(F)F [Example 254, 2-(2-Trifluoromethyl-4-bromo-phenylamino)-4-trifluoromethyl-pyrimidine-5-carboxylic acid (tetrahydro-pyran-4-ylmethyl)-amide] | 20 to 300 | > 50
O=C(NCC1CCSCC1)c1cnc(Nc2cccc(Cl)c2)nc1C(F)(F)F [Example 255, 2-(3-Chlorophenylamino)-4-trifluoromethyl-pyrimidine-5-carboxylic acid (tetrahydrothiopyran-4-ylmethyl) amide] | 20 to 300 | > 50
O=C(NCC1CCSCC1)c1cnc(Nc2ccc(Cl)cc2Cl)nc1C(F)(F)F [Example 256, 2-(2,4-Dichlorophenylamino)-4-trifluoromethyl-pyrimidin-5-carboxylic acid (tetrahydrothiopyran-4-ylmethyl) amide] | 20 to 300 | > 50
O=C(NCC1CCC1)c1cnc(Nc2ccccc2Cl)nc1C(F)(F)F [Example 257, 2-(2-Chlorophenylamino)-4-trifluoromethyl-pyrimidine-5-carboxylic acid cyclobutylmethyl-amide] | 300 to 1000 | > 50
O=C(NCC1CCC1)c1cnc(Nc2cc(F)cc(C(F)(F)F)c2)nc1C(F)(F)F [Example 258, 2-(3-Fluoro-5-trifluoromethylphenylamino)-4-trifluoromethyl-pyrimidine-5-carboxylic acid cyclobutylmethyl-amide] | 300 to 1000 | > 50
Cc1ccc(Cl)cc1Nc1ncc(C(=O)NCC2CCC2)c(C(F)(F)F)n1 [Example 259, 2-(5-Chloro-2-methylphenylamino)-4-trifluoromethyl-pyrimidine-5-carboxylic acid cyclobutylmethyl-amide] | 300 to 1000 | > 50
O=C(NCc1ccccc1)c1cnc(Nc2cccc(Cl)c2)nc1C(F)(F)F [Example 266, 2-(3-Chlorophenylamino)-4-trifluoromethylpyrimidine-5-carboxylic acid benzyl-amide] | 20 to 300 | > 50
O=C(NCc1ccncc1)c1cnc(Nc2cccc(Cl)c2)nc1C(F)(F)F [Example 267, 2-(3-Chlorophenylamino)-4-trifluoromethylpyrimidine-5-carboxylic acid (pyridin-4-ylmethyl)amide] | 20 to 300 | –
